Values joined by “and” are separate entries in the source; they are usually repeats but may differ in a detail not shown here. Identical values can stand only once. “Also recorded” adds a separate entry of the source.

The target in assay [1] is LepA (Escherichia coli, UniProt P60785). Put plainly: DRaCALA binding curves, purified LepA. As to conditions: Kd could not be determined. More on the design: species or system E. coli.
Experimental: For Kd measurements by DRaCALA, 2-fold serial dilutions from the highest possible concentrations of each purified protein were prepared in binding buffer B, and approximately 2 nM concentrations of α-^32P-labeled ppGpp, pppGpp, GTP, and GDP were added. The mixtures were incubated for 5 min at RT before spotting of 2 µl of the reaction mixtures onto nitrocellulose membranes. The fractions of bound ligand and the apparent Kd values were calculated as previously described ([37]). For competition assays, purified proteins at the specified concentrations were incubated with 2 nM [α-^32P]ppGpp or [α-^32P]pppGpp in the presence of 100 μM competitor nucleotides in binding buffer B. The reaction mixtures were incubated for 5 min at RT, 2 µl was spotted onto nitrocellulose membranes, and the values corresponding to the bound fractions were determined. EDTA was added at excess concentrations as specified for each case.
In assay [2] the target is EF-Tu. Set-up: method as in Table S1 (9). To be noted: ref Table S1 (9); cited from earlier work.
Assay [3] deals with RelA. More on the design: method as in ref 36 (Table S1 ref 16). As to conditions: ref 36 (Table S1 ref 16); cited from earlier work.
Assay [4] addresses Apt (Escherichia coli, UniProt P69503). To be noted: cited from earlier work.
Assay [5] addresses SaRF3 (PrfC from S. aureus) (Staphylococcus aureus, UniProt A6QFN0). Put plainly: DRaCALA binding, SaRF3. To be noted: 12 µM protein.
In assay [6] the test system is HprT. Set-up: method as in ref 46 (Table S1 ref 3). To be noted: ref 46 (Table S1 ref 3); read-out: IC50, B. subtilis HprT; cited from earlier work.
Assay [7] deals with SaDer (Staphylococcus aureus, UniProt A6QH24). Put plainly: DRaCALA Kd determination, SaDer. It is filed as binding, S. aureus.
SaDer, sequence (A6QH24 whole entry): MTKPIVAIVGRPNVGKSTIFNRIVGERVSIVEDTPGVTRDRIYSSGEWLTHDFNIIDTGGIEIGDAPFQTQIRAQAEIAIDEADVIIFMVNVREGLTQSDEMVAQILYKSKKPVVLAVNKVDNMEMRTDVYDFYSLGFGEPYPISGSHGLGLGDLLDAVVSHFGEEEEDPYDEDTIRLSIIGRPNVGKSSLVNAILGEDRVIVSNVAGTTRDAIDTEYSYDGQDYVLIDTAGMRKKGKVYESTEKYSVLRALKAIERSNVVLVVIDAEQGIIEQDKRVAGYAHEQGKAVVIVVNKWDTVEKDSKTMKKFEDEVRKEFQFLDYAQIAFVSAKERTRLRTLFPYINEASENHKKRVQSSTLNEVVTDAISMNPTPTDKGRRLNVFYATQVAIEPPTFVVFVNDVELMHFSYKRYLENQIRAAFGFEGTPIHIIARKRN
Experimental: For Kd measurements by DRaCALA, 2-fold serial dilutions from the highest possible concentrations of each purified protein were prepared in binding buffer B, and approximately 2 nM concentrations of α-^32P-labeled ppGpp, pppGpp, GTP, and GDP were added. The mixtures were incubated for 5 min at RT before spotting of 2 µl of the reaction mixtures onto nitrocellulose membranes. The fractions of bound ligand and the apparent Kd values were calculated as previously described ([37]).
Assay [8] concerns Gmk. Set-up: method as in Table S1 (3). As to conditions: ref Table S1 (3); read-out: IC50, B. subtilis Gmk; cited from earlier work.
Assay [9] deals with SpeC. Set-up: method as in Table S1 (19). As to conditions: ref Table S1 (19); cited from earlier work.
The target in assay [10] is TrmE (Escherichia coli, UniProt P25522). Put plainly: In vitro cleavage assay (TLC), TrmE. It is filed as biochemical, E. coli. To be noted: 10 µM TrmE, buffer B, with 100 mM potassium where stated, 10 min. The procedure:
The purified His6-MutT and His6-NudG proteins were tested for their relative levels of cleavage of ppGpp compared to those seen with their native substrates. For this, a 1 μM concentration of each protein and a 10 nM concentration of [α-^32P]ppGpp were used together with 100 μM concentrations of cold competitors [ppGpp, GTP, ATP, 8-oxo-(d)GTP, 2-hydroxyl-(d)ATP] or 50 mM EDTA in buffer B. The samples were incubated at 30°C for 10 min and for 1 h before the reactions were stopped by adding 50 mM EDTA. The cleavage products were resolved by TLC as described above. The purified His6-NadR and His6-TrmE proteins were tested for their cleavage of both GTP and ppGpp. For cleavage of GTP, 10 μM concentrations of His6-MBP, His6-TrmE, and 20 μM His6-NadR proteins were used with 2 nM [α-^32P]GTP and 100 μM cold GTP in buffer B. For cleavage of ppGpp, 10 μM concentrations of His6-TrmE, His6-MBP, and His6-NadR proteins were used with 10 nM [α-^32P]ppGpp in buffer B. Of note, for His6-TrmE, another reaction was also performed in buffer B supplemented with 100 mM KCl. The reactions were performed at RT for 10 min and were stopped by adding 17% formic acid. The cleavage products were resolved by TLC as described above.
A 20 μM concentration of each of purified proteins MutT, NudG, NadR, TrmE, and MBP (as a negative control) was incubated with 100 μM ppGpp in buffer B (containing 40 mM Tris [pH 7.5], 100 mM NaCl, and 10 mM MgCl2) for 20 min at room temperature. Samples were snap-frozen on dry ice and analyzed with UPLC-MS afterward. All samples and buffers were stored at −80°C, thawed on ice, and kept at 4°C during analysis. For the analysis, a UPLC-quadrupole time of flight (UPLC-qTOF) method (Waters) was used. […] The detection conditions were as follows: photodiode array detector (PDA), […] (evaluated at 260 nm); MS, ionization; electrospray ionization (ESI+), scan, 200 to 800 m/z with lock mass correction. […]

In assay [11] the target is NadR (Escherichia coli, UniProt P27278). Kind of assay: In vitro cleavage assay (TLC), NadR. It is filed as biochemical, E. coli. To be noted: 10-20 µM NadR, buffer B with 100 mM NaCl, 10 min. The procedure: The purified His6-MutT and His6-NudG proteins were tested for their relative levels of cleavage of ppGpp compared to those seen with their native substrates. For this, a 1 μM concentration of each protein and a 10 nM concentration of [α-^32P]ppGpp were used together with 100 μM concentrations of cold competitors [ppGpp, GTP, ATP, 8-oxo-(d)GTP, 2-hydroxyl-(d)ATP] or 50 mM EDTA in buffer B. The samples were incubated at 30°C for 10 min and for 1 h before the reactions were stopped by adding 50 mM EDTA. The cleavage products were resolved by TLC as described above. The purified His6-NadR and His6-TrmE proteins were tested for their cleavage of both GTP and ppGpp. […]
NadR, sequence (P27278 whole entry): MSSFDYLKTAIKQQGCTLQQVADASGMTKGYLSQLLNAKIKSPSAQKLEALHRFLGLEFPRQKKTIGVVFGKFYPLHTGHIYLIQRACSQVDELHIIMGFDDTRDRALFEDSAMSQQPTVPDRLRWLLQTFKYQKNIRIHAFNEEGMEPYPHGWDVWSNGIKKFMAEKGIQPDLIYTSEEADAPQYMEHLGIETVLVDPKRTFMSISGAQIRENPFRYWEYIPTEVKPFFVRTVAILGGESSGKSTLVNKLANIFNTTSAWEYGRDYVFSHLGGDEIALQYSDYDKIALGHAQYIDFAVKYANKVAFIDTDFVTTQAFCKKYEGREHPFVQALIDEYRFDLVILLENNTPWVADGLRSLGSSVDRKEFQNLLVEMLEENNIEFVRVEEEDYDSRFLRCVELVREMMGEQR
A 20 μM concentration of each of purified proteins MutT, NudG, NadR, TrmE, and MBP (as a negative control) was incubated with 100 μM ppGpp in buffer B (containing 40 mM Tris [pH 7.5], 100 mM NaCl, and 10 mM MgCl2) for 20 min at room temperature. Samples were snap-frozen on dry ice and analyzed with UPLC-MS afterward. […] The detection conditions were as follows: photodiode array detector (PDA), […] (evaluated at 260 nm); MS, ionization; electrospray ionization (ESI+), scan, 200 to 800 m/z with lock mass correction. […]

Assay [12] deals with Gpt (Escherichia coli, UniProt P0A9M5). More on the design: method as in ref 29-32 (Table S1 refs 1, 2). To be noted: ref 29-32 (Table S1 refs 1, 2); cited from earlier work.
Gpt, sequence (P0A9M5 whole entry): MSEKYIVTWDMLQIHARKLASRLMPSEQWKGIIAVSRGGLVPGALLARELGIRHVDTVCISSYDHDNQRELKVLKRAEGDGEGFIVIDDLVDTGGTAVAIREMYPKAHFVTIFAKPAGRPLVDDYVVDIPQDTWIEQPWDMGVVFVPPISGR
Assay [13] concerns GppA. Set-up: method as in Table S1 (17). As to conditions: ref Table S1 (17); cited from earlier work.

LepA, sequence (P60785 whole entry): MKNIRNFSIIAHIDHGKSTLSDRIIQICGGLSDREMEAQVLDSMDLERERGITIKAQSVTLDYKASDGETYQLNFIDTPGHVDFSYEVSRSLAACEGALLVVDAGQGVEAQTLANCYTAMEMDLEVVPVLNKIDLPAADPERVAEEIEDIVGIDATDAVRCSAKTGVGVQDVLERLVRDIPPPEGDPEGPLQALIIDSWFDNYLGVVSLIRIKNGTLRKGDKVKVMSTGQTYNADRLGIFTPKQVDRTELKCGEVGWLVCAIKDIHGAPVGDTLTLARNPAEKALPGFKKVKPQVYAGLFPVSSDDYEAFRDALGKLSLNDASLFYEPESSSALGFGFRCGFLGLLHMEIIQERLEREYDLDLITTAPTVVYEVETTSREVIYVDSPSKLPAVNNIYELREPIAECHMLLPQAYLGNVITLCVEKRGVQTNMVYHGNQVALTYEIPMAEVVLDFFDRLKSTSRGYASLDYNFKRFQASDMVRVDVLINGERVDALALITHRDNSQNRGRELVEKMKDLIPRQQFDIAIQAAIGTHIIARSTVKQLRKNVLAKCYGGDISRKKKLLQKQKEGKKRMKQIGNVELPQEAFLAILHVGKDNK
SaRF3 (PrfC from S. aureus), sequence (A6QFN0 whole entry): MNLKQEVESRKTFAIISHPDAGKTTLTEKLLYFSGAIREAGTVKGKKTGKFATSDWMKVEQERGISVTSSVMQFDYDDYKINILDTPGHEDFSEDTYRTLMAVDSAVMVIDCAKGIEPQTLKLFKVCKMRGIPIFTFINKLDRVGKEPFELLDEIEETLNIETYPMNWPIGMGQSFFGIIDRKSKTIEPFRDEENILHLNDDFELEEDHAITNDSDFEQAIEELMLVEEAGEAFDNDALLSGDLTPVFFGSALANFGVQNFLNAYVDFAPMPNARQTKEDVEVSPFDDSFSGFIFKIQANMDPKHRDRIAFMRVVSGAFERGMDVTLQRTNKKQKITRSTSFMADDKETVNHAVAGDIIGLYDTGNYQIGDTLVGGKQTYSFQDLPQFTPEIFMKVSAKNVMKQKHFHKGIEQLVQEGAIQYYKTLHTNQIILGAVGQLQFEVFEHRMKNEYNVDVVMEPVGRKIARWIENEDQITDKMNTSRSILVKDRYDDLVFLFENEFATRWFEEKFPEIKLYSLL
Apt, sequence (P69503 whole entry): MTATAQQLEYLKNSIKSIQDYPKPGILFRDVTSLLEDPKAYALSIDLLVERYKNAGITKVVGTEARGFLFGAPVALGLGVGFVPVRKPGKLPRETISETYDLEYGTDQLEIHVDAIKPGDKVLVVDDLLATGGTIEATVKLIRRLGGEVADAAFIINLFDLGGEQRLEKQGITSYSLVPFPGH
TrmE, sequence (P25522 whole entry): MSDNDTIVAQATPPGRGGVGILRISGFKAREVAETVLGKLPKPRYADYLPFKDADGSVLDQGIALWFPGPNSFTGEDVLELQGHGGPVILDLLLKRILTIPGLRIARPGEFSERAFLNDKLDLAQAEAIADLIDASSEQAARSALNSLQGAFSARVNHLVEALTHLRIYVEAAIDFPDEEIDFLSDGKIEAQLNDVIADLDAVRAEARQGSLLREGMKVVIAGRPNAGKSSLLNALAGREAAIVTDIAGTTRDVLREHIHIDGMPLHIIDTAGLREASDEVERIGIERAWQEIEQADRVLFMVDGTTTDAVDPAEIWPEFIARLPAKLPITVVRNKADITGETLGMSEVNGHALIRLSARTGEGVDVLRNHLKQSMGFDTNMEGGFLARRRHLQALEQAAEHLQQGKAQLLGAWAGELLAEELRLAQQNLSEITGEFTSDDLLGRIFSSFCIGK

As for `Nc1nc2c(ncn2[C@@H]2O[C@H](COP(=O)(O)OP(=O)(O)O)[C@@H](OP(=O)(O)OP(=O)(O)O)[C@H]2O)c(=O)[nH]1` [ppGpp, guanosine tetraphosphate], the “relative binding to LepA (binding curves)” value in [1] was “tighter binding of ppGpp than pppGpp; also recorded: ND; stronger binding to ppGpp than pppGpp”. In addition, the inhibition constant (Ki) in assay [2] is 60 µM. Besides, the “effect on RelA activity” value in assay [3] is “allosterically stimulates”. The IC50 in [4] was around 1500 µM; in [6] it was 11 µM; in [8], 20 µM; in [12] it was ~85 µM and 85 µM. The “binding to SaRF3” value in assay [5] is on record as “very weak binding (if any); also recorded: No binding of ppGpp by 12 µM of PrfC from S. aureus”. Also, the Kd was 3.8 ± 0.5 µM in [7] and 0.598 ± 0.068 µM in [9]. Also, in assay [10], the “cleavage by TrmE” value is “converted most of ppGpp”. In addition, the “cleavage by NadR” value in assay [11] is “converted most of ppGpp”.
As to `Nc1nc2c(ncn2[C@@H]2O[C@H](COP(=O)(O)OP(=O)(O)OP(=O)(O)O)[C@@H](OP(=O)(O)OP(=O)(O)O)[C@H]2O)c(=O)[nH]1` [pppGpp, guanosine pentaphosphate], in assay [13], the “conversion by GppA” value was “Convert pppGpp to ppGpp; (17)”.

For orientation: Ki means the equilibrium dissociation constant of an inhibitor or competing ligand from its target. The term IC50 denotes the concentration needed to halve the response being measured. One may read the Kd as a measure of binding affinity in units of concentration.
